Measured values as given in patent US12171813B2, “Methods of and compositions for reducing gene expression and/or activity” (Christiana Care Gene Editing Institute, Inc., priority 2021, dated 2024).

Tests used:
[1] = tested on: EGFR gene; assay: Genomic DNA PCR assessment of large deletions in EGFR gene; assay type: cell-based, Human; settings: gRNA alone, not paired
Protocol: After CRISPR reactions, genomic DNA was prepared for PCR amplification of the target region from EGFR gene. PCR-amplified DNA was then analyzed by electrophoresis through a 1% agarose gel for 75 minutes at 80v. DNA was stained with SYBR Safe. Lanes 1 and 10: NEB 2 Log Ladder; Lane 2: Scrambled gRNA; Lane 3: L858R gRNA alone; Lane 4: EGFR 21-22 SureKill gRNA 19 alone; Lane 5: EGFR 21-22 SureKill gRNA 27 alone; Lane 6: EGFR 21-22 SureKill gRNA 28+L858R gRNA; Lane 7: EGFR 21-22 SureKill gRNA 27+L858R gRNA; Lane 8: EGFR 21-22 SureKill gRNA 19+L858R gRNA; Lane 9: EGFR 21-22 SureKill gRNA 28 alone. On the left side of the image are markers indicating DNA size in bp. Expected dropout size of EGFR 21-22 SureKill gRNA 19+L858R gRNA: 316 bp. Expected dropout size of EGFR 21-22 SureKill gRNA 27+L858R gRNA: 417 bp. Expected dropout size of EGFR 21-22 SureKill gRNA 28+L858R gRNA: 463 bp. Dropout bands are indicated by asterisks.
Human lung squamous cell carcinoma NCI-H1703 clone 44-25 cells were derived from NCI-H1703 cells (#CRL-5889) which were purchased from ATCC (Manassas, VA, USA). NCI-H1703 clone 44-25 cells contains R34G mutation (C 4 G) in NFE2L2 gene. […]
(§1) Transfections were carried out using the Lonza Nuclefector 4d. […] RNPs were complexed at 250:50 pmol for 30 minutes prior to transfection, during which time cells were harvested and counted. […]

[2] = tested on: NRF2; assay: cDNA PCR analysis of exon skipping / full-size transcript in NFE2L2; assay type: cell-based, Human; settings: gRNA individually applied in the CRISPR reaction; NCI-H1703 clone 44-25 cells
Protocol: After CRISPR reactions, total RNA was prepared, and cDNA synthesized for PCR amplification of the target region from NRF2. PCR-amplified DNA was then analyzed by electrophoresis through a 1% agarose gel for 75 minutes at 80v. DNA was stained with SYBR Safe. Lanes 1 and 10: NEB 2 Log Ladder; Lane 2: Scrambled gRNA; Lane 3: NRF2 3-4 SureKill gRNA 3 alone; Lane 4: NRF2 3-4 SureKill gRNA 12 alone; Lane 5: NRF2 3-4 SureKill gRNA 14 alone; Lane 6: NRF2 3-4 SureKill gRNA 15 alone; Lane 7: NRF2 3-4 SureKill gRNA 21 alone; Lane 8: NRF2 3-4 SureKill gRNA 25 alone; Lane 9: NRF2 3-4 SureKill gRNA 26 alone. On the left side of the image are markers indicating DNA size in bp.
After CRISPR reactions, total RNA was prepared, and cDNA synthesized for PCR amplification of the target region from NRF2. PCR-amplified DNA was then analyzed by electrophoresis through a 1% agarose gel for 75 minutes at 80v. DNA was stained with SYBR Safe. Lane 1: NEB 2 Log Ladder; Lane 2: Scrambled gRNA; Lane 3: R34G gRNA alone; Lane 4: NRF2 3-4 SureKill gRNA 3+R34G gRNA; Lane 5: NRF2 3-4 SureKill gRNA+R34G gRNA; Lane 6: NRF2 3-4 SureKill gRNA 14+R34G gRNA. […]
as §1

| Substance | large deletions (genomic DNA PCR) [1] | exon skipping (cDNA analysis) [2] |
| --- | --- | --- |
| L858R gRNA: guide RNA TCAAGATCACAGATTTTGGG, SEQ ID NO:8, targets EGFR L858R mutation (listed as DNA, chemistry not given here) | does not induce a large deletion | – |
| R34G gRNA: guide RNA GATATAGATCTTGGAGTAAG, SEQ ID NO:1, targets NRF2 R34G mutation (listed as DNA, chemistry not given here) | – | induced some level of exon skipping |
